Reference: patent US5300491A, “Treatment of protozoal infection” (priority 1992, dated 1994)
Read-outs that look alike come from different tables or passages of the source.

Test system: Entamoeba histolytica
Assay type: cell-based
Source text: E. histolytica isolates representing three distinct zymodemes (I, II or XIV) were derived from a range of geographical locations. The patients from whom the isolates were obtained were either pathogenic (i.e. presented dysentery), or non-pathogenic (i.e., presented a non-dysenteric stage of infection characterized by passing of cysts or trophozoites). The following table identifies the E. histolytica isolates in accordance with the above criteria:
Each isolate was a xenic culture, i.e., it contained, in addition to the E. histolytica amoeba, the normally occurring patient faecal microflora. The cultures were maintained according to the method of Robinson, Trans. Roy. Soc. Trop. Med. Hyg. 62, 285-94, (1968). Bacitracin (70 I.U./mg) and its zinc salt (65 I.U./mg) were obtained from Apothekernes Laboratorium A.S (Oslo, Norway). Following microtitre-assay standardization and pilot testing of the drugs (results not presented), the following assay procedure was established. Bacitracin was screened over the range of 20.0-0.625 mg/ml by doubling dilution. 30 mg/ml bacitracin was also examined. […] The remaining wells were run as controls. An initial stock solution of 75 mg/ml bacitracin was prepared in starch-free Robinson medium (SFRM) . Subsequent to loading the first set of wells, the stock was diluted with SFRM to 50 mg/ml, which was used to prepare the remaining concentrations. […] 100 μl volumes of both drugs were then double-diluted in SFRM to provide 2.5X concentrates of the required final concentrations in the microtitre plates. 50 μl of a 25 mg% starch (BDH) solution (in SFRM) was then added to each well. 16-18 hours before the end of the required 48-hour culture period, the amoeba isolates were passaged to fresh tubes containing starch-free Robinson medium. At the end of the culture period, the amoebae were harvested in a small volume of medium and resuspended in at least 20 volumes SFRM. The suspensions were centrifuged at 1000 rpm for 5 minutes prior to re-suspension in fresh medium and counted in a modified Neubauer chamber. Amoebae were centrifuged as before and the pellet resuspended to a concentration of 2.5×10^4 /ml SFRM. 100 μl aliquots were then pipetted into respective wells to provide duplicate cultures of each isolate for each concentration assayed. The plates were then placed in an anaerobic chamber (HP11, Oxoid) at 37° C. for 24 hours. While this procedure provided sufficient starch for the amoebae, the concentration was such that at 24 hours the plates were easily read and quantitified by direct observation using an inverted microscope. Viability was assessed by the addition of Trypan blue to a final concentration of 0.1%.
Readings from each of the studies were collected and stored until all three experiments were completed in order to reduce any bias in subsequent readings. Minimun inhibitory and minimum lethal concentrations were given in mg/ml. […]

[1] = span over all xenic isolates and studies
[2] = xenic isolate 70k, Experiment 1
[3] = xenic isolate 70k, Experiment 2
[4] = xenic isolate 70k, Experiment 3
[5] = xenic isolate 116k, Experiment 1
[6] = xenic isolate 116k, Experiment 2
[7] = xenic isolate 116k, Experiment 3
[8] = xenic isolate 418, Experiment 1
[9] = xenic isolate 418, Experiment 2
[10] = xenic isolate 418, Experiment 3
[11] = xenic isolate 1246, Experiment 1
[12] = xenic isolate 1246, Experiment 2
[13] = xenic isolate 1246, Experiment 3
[14] = xenic isolate AiDO, Experiment 1
[15] = xenic isolate AiDO, Experiment 2
[16] = xenic isolate AiDO, Experiment 3
[17] = xenic isolate BiLO, Experiment 1
[18] = xenic isolate BiLO, Experiment 3
[19] = xenic isolate DOGO, Experiment 1
[20] = xenic isolate DOGO, Experiment 2
[21] = xenic isolate DOGO, Experiment 3
[22] = xenic isolate OMAk, Experiment 1
[23] = xenic isolate OMAk, Experiment 3
[24] = xenic isolate Sh2, Experiment 1
[25] = xenic isolate Sh2, Experiment 2
[26] = xenic isolate Sh2, Experiment 3
[27] = xenic isolate T2k, Experiment 1
[28] = xenic isolate T2k, Experiment 2
[29] = xenic isolate T2k, Experiment 3
[30] = xenic isolate URU1, Experiment 1
[31] = xenic isolate URU1, Experiment 2
[32] = xenic isolate URU1, Experiment 3
[33] = xenic isolate URU19, Experiment 1
[34] = xenic isolate URU19, Experiment 3

## Zinc bacitracin
In the xenic culture assay medium
  concentration at which precipitation occurred: ≥ 5000 µg/mL
[1]
  MICs: 0.16 to 1.25 mg/mL
  MLCs: 1.25 to 5.0 mg/mL
Xenic Isolate 1, single study over a narrower range of drug concentration (Table 4)
  Minimum Lethal Concentration (MLC): 1600 µg/mL
Xenic Isolate C1, single study over a narrower range of drug concentration (Table 4)
  Minimum Lethal Concentration (MLC): 1400 µg/mL
Xenic isolate 1, Experiment 1
  Minimum Inhibitory Concentration (MIC): 630 µg/mL
  Minimum Lethal Concentration (MLC): 2500 µg/mL
Xenic isolate 1, Experiment 2
  Minimum Inhibitory Concentration (MIC): 1250 µg/mL
  Minimum Lethal Concentration (MLC): 2500 µg/mL
Xenic isolate 1, Experiment 3
  Minimum Inhibitory Concentration (MIC): 310 µg/mL
  Minimum Lethal Concentration (MLC): 2500 µg/mL
[2]
  Minimum Inhibitory Concentration (MIC): 630 µg/mL
  Minimum Lethal Concentration (MLC): 2500 µg/mL
[3]
  Minimum Inhibitory Concentration (MIC): 630 µg/mL
  Minimum Lethal Concentration (MLC): 2500 µg/mL
[4]
  Minimum Inhibitory Concentration (MIC): 630 µg/mL
  Minimum Lethal Concentration (MLC): 2500 µg/mL
[5]
  Minimum Inhibitory Concentration (MIC): 630 µg/mL
  Minimum Lethal Concentration (MLC): 2500 µg/mL
[6]
  Minimum Inhibitory Concentration (MIC): 310 µg/mL
  Minimum Lethal Concentration (MLC): 1250 µg/mL
[7]
  Minimum Inhibitory Concentration (MIC): 310 µg/mL
  Minimum Lethal Concentration (MLC): 2500 µg/mL
[8]
  Minimum Inhibitory Concentration (MIC): 630 µg/mL
  Minimum Lethal Concentration (MLC): 5000 µg/mL
[9]
  Minimum Inhibitory Concentration (MIC): 310 µg/mL
  Minimum Lethal Concentration (MLC): 2500 µg/mL
[10]
  Minimum Inhibitory Concentration (MIC): 310 µg/mL
  Minimum Lethal Concentration (MLC): 2500 µg/mL
[11]
  Minimum Inhibitory Concentration (MIC): 160 µg/mL
  Minimum Lethal Concentration (MLC): 2500 µg/mL
[12]
  Minimum Inhibitory Concentration (MIC): 630 µg/mL
  Minimum Lethal Concentration (MLC): 2500 µg/mL
[13]
  Minimum Inhibitory Concentration (MIC): 310 µg/mL
  Minimum Lethal Concentration (MLC): 1250 µg/mL
[14]
  Minimum Inhibitory Concentration (MIC): 630 µg/mL
  Minimum Lethal Concentration (MLC): 2500 µg/mL
[15]
  Minimum Inhibitory Concentration (MIC): 160 µg/mL
  Minimum Lethal Concentration (MLC): 2500 µg/mL
[16]
  Minimum Inhibitory Concentration (MIC): 160 µg/mL
  Minimum Lethal Concentration (MLC): 2500 µg/mL
[17]
  Minimum Inhibitory Concentration (MIC): 310 µg/mL
  Minimum Lethal Concentration (MLC): 2500 µg/mL
[18]
  Minimum Inhibitory Concentration (MIC): 310 µg/mL
  Minimum Lethal Concentration (MLC): 2500 µg/mL
Xenic isolate C1, Experiment 1
  Minimum Inhibitory Concentration (MIC): 1250 µg/mL
  Minimum Lethal Concentration (MLC): 2500 µg/mL
Xenic isolate C1, Experiment 2
  Minimum Inhibitory Concentration (MIC): 310 µg/mL
  Minimum Lethal Concentration (MLC): 2500 µg/mL
Xenic isolate C1, Experiment 3
  Minimum Inhibitory Concentration (MIC): 310 µg/mL
  Minimum Lethal Concentration (MLC): 2500 µg/mL
Xenic isolate C2, Experiment 1
  Minimum Inhibitory Concentration (MIC): 630 µg/mL
  Minimum Lethal Concentration (MLC): 2500 µg/mL
Xenic isolate C2, Experiment 2
  Minimum Inhibitory Concentration (MIC): 630 µg/mL
  Minimum Lethal Concentration (MLC): 2500 µg/mL
Xenic isolate C2, Experiment 3
  Minimum Inhibitory Concentration (MIC): 310 µg/mL
  Minimum Lethal Concentration (MLC): 2500 µg/mL
Xenic isolate DA, Experiment 1
  Minimum Inhibitory Concentration (MIC): 630 µg/mL
  Minimum Lethal Concentration (MLC): 2500 µg/mL
Xenic isolate DA, Experiment 2
  Minimum Inhibitory Concentration (MIC): 630 µg/mL
  Minimum Lethal Concentration (MLC): 2500 µg/mL
Xenic isolate DA, Experiment 3
  Minimum Inhibitory Concentration (MIC): 630 µg/mL
  Minimum Lethal Concentration (MLC): 2500 µg/mL
[19]
  Minimum Inhibitory Concentration (MIC): 160 µg/mL
  Minimum Lethal Concentration (MLC): 2500 µg/mL
[20]
  Minimum Inhibitory Concentration (MIC): 310 µg/mL
  Minimum Lethal Concentration (MLC): 2500 µg/mL
[21]
  Minimum Inhibitory Concentration (MIC): 310 µg/mL
  Minimum Lethal Concentration (MLC): 1250 µg/mL
Xenic isolate GS, Experiment 1
  Minimum Inhibitory Concentration (MIC): 630 µg/mL
  Minimum Lethal Concentration (MLC): 2500 µg/mL
Xenic isolate GS, Experiment 2
  Minimum Inhibitory Concentration (MIC): 630 µg/mL
  Minimum Lethal Concentration (MLC): 2500 µg/mL
Xenic isolate GS, Experiment 3
  Minimum Inhibitory Concentration (MIC): 310 µg/mL
  Minimum Lethal Concentration (MLC): 2500 µg/mL
Xenic isolate MS, Experiment 1
  Minimum Inhibitory Concentration (MIC): 630 µg/mL
  Minimum Lethal Concentration (MLC): 2500 µg/mL
Xenic isolate MS, Experiment 2
  Minimum Inhibitory Concentration (MIC): 630 µg/mL
  Minimum Lethal Concentration (MLC): 1250 µg/mL
Xenic isolate MS, Experiment 3
  Minimum Inhibitory Concentration (MIC): 630 µg/mL
  Minimum Lethal Concentration (MLC): 2500 µg/mL
[22]
  Minimum Inhibitory Concentration (MIC): 310 µg/mL
  Minimum Lethal Concentration (MLC): 2500 µg/mL
[23]
  Minimum Inhibitory Concentration (MIC): 160 µg/mL
  Minimum Lethal Concentration (MLC): 2500 µg/mL
Xenic isolate SI, Experiment 1
  Minimum Inhibitory Concentration (MIC): 630 µg/mL
  Minimum Lethal Concentration (MLC): 2500 µg/mL
Xenic isolate SI, Experiment 3
  Minimum Inhibitory Concentration (MIC): 630 µg/mL
  Minimum Lethal Concentration (MLC): 2500 µg/mL
[24]
  Minimum Inhibitory Concentration (MIC): 630 µg/mL
  Minimum Lethal Concentration (MLC): 2500 µg/mL
[25]
  Minimum Inhibitory Concentration (MIC): 630 µg/mL
  Minimum Lethal Concentration (MLC): 2500 µg/mL
[26]
  Minimum Inhibitory Concentration (MIC): 310 µg/mL
  Minimum Lethal Concentration (MLC): 2500 µg/mL
[27]
  Minimum Inhibitory Concentration (MIC): 630 µg/mL
  Minimum Lethal Concentration (MLC): 5000 µg/mL
[28]
  Minimum Inhibitory Concentration (MIC): 310 µg/mL
  Minimum Lethal Concentration (MLC): 5000 µg/mL
[29]
  Minimum Inhibitory Concentration (MIC): 160 µg/mL
  Minimum Lethal Concentration (MLC): 2500 µg/mL
Xenic isolate T4, Experiment 1
  Minimum Inhibitory Concentration (MIC): 310 µg/mL
  Minimum Lethal Concentration (MLC): 2500 µg/mL
Xenic isolate T4, Experiment 2
  Minimum Inhibitory Concentration (MIC): 310 µg/mL
  Minimum Lethal Concentration (MLC): 2500 µg/mL
Xenic isolate T4, Experiment 3
  Minimum Inhibitory Concentration (MIC): 160 µg/mL
  Minimum Lethal Concentration (MLC): 2500 µg/mL
Xenic isolate T6, Experiment 1
  Minimum Inhibitory Concentration (MIC): 310 µg/mL
  Minimum Lethal Concentration (MLC): 2500 µg/mL
Xenic isolate T6, Experiment 2
  Minimum Inhibitory Concentration (MIC): 630 µg/mL
  Minimum Lethal Concentration (MLC): 2500 µg/mL
Xenic isolate T6, Experiment 3
  Minimum Inhibitory Concentration (MIC): 310 µg/mL
  Minimum Lethal Concentration (MLC): 2500 µg/mL
[30]
  Minimum Inhibitory Concentration (MIC): 630 µg/mL
  Minimum Lethal Concentration (MLC): 2500 µg/mL
[31]
  Minimum Inhibitory Concentration (MIC): 1250 µg/mL
  Minimum Lethal Concentration (MLC): 2500 µg/mL
[32]
  Minimum Inhibitory Concentration (MIC): 630 µg/mL
  Minimum Lethal Concentration (MLC): 2500 µg/mL
[33]
  Minimum Inhibitory Concentration (MIC): 630 µg/mL
  Minimum Lethal Concentration (MLC): 2500 µg/mL
[34]
  Minimum Inhibitory Concentration (MIC): 310 µg/mL
  Minimum Lethal Concentration (MLC): 2500 µg/mL
